# According to patent US5843959A, “Methods and bicyclic polyamine compositions for the treatment of inflammation” (University of Florida Research Foundation, Inc., priority 1997, dated 1998):
# Where “and” joins values, the source holds several entries; their conditions need not be identical. Identical values can stand only once. Entries after “also recorded” stand apart in the source; their conditions may differ.
# How the values were obtained:
# [1] = test system: type II collagen-induced arthritis; test: Prevention of type II collagen-induced arthritis in mice; type: in vivo, mouse (DBA/1J)
# Procedure: The purpose of this study was to test PIP[4,4,4] in an experimental model of arthritis in DBA/1J mice by observing the onset, duration and remission of inflammation utilizing type II collagen. Twenty male DBA/1J mice, equally divided into two groups of ten animals, were immunized with a single intradermal injection of native type II chick collagen (100 μg/animal, intradermally) in Complete Freund's Adjuvant (CFA) on Day 0. […] On Day 21, both groups received a challenge dose of type II collagen (100 μg/animal, intradermally at the base of the tail, in 50 μl CFA). Daily joint measurements were recorded once per day on Days 20-40. Joints were measured using a constant tension caliper (Mitutoyo Digimatic Thickness Gauge). All mice were measured before the start of the study (Day -1) to obtain baseline readings at three joints on the right and left hindlimb (paw thickness, ankle width and knee width) and two joints of the right and left forelimb (paw thickness and elbow width). […] Four of ten mice treated with PIP[4,4,4] died or were sacrificed in extremis, during the treatment period.
# [2] = test system: phenylquinone (P.Q.) writhing; test: Analgesic activity, phenylquinone writhing; type: in vivo, mouse (ICR)
# Procedure: The method of Siegmund et al [Proc. Soc. Exp. Biol. Med., Vol. 95, pages 729-731 (1957)] was used to measure the analgesic activity of PIP[4,4,4]. Groups of 10 male ICR mice weighing 22±2 g were employed. Various doses of test compound, dissolved in a vehicle of distilled water, were administered intraperitoneally. The control group received vehicle alone. […] The mean±SEM number of writhes in each treatment group was calculated and unpaired Student's t test was applied for comparison between vehicle and treated groups. Differences were considered significant when P<0.05.
# [3] = test system: BALB/c splenocytes stimulated with LPS; test: Mitogen response to LPS (B cell proliferation); type: cell-based, mouse (BALB/c)
# Procedure: This study examined the potential immunomodulatory activities of PIP[4,4,4] on mouse spleen cells using in vitro techniques. The effect of the compound on the ability of murine splenocytes to respond to the […] mitogen concanavalin A (Con A) and the B cell mitogen lipopolysaccharide (LPS) was studied. […] In addition, the compound was tested for its effect on the mixed lymphocyte response (MLR). The MLR is an in vitro manifestation of cell-mediated immunity in which T cells respond to differences in major histocompatibility complex (MHC) class II molecules (Ia antigens) expressed on foreign or allogeneic leukocytes (primarily B cells and […]/monocytes).
# a. Preparation of cells--Under sterile conditions, spleens were removed from BALB/c (H-2^d) and CBA/J (H-2^k) mice. BALB/c splenocytes were used as responder cells in the mitogen assays and the MLR assays, whereas CBA/J cells were used as stimulator cells in the MLR assays. […] Cells were exposed to various concentrations of the test compounds for the entire culture period. The initial dilutions in medium were filter sterilized to maintain aseptic conditions.
# b. Mitogen assays--Con A and LPS were obtained from Sigma Chemical Co. (St. Louis, Mo., U.S.A.). 2×10^5 BALB/c splenocytes were added per well. […] Triplicate wells were set up in 96-well flat-bottom microtiter plates for all treated cultures and positive controls (100% of control) were performed in replicates of nine wells. Plates were incubated at 37° C. in a humidified CO2 incubator for 3 days, pulsed with 1 μCi ^3 H-TdR/well for 6-16 hours, harvested and counted in a liquid scintillation counter. All data were processed using Lotus 1-2-3 and SigmaPlot software.
# [4] = test system: carrageenan-induced edema in rat paw; test: Inhibition of carrageenan-induced paw edema in rats
# [5] = Solubility in the vehicle; type: physicochemical; settings: distilled water
# Procedure: PIP[4,4,4] was obtained as described above. Distilled water was used as the vehicle for in vivo testing. […] Commercially obtained chemicals used were indomethacin and hydrocortisone (Sigma, St. Louis, Mo., U.S.A.), aspirin (Miles Labs., Elkart, IN, U.S.A.), carrageenan (Tokyo Kasei Industry Co., Ltd.), Mycobacterium tuberculosis (Difco Labs., Detroit, Mich., U.S.A.) and carboxymethyl-cellulose (Wako Pure Chemical Industries, Osaka, Japan). Doses of all compounds used were calculated on the basis of the weight of the salt.
# [6] = test system: adjuvant-induced arthritis
# [7] = test system: adjuvant-induced arthritis; test: Adjuvant-induced arthritis model in Lewis rats (Table 7); settings: p.o. 5 days, DiPIPs 100 mg/kg, Voltaren and indomethacin 6 mg/kg
# Procedure: Four groups consisting of 6 male Lewis rats weighing 150-200 g were injected subcutaneously at the base of the tail with 0.1 ml of CFA. Drugs to be assayed were administered 5 days beginning on the day of the adjuvant injection. The paw volume of the right and left rear paw of each rat were measured on the day of adjuvant injection and at regular intervals for 30 days thereafter.
# The emulsion was injected subcutaneously at the base of the tail and induced the arthritic state. Measurements of paw volume were made for 30 days to monitor paw swelling. Drug treatment began on Day 0.
# Four groups consisting of 10 male Lewis rats weighing 150-200 g were injected subcutaneously at the base of the tail with 0.1 ml of CFA. Drugs to be assayed were administered for 5 days beginning on the day of the adjuvant injection.
# [8] = 100 mg/kg p.o. daily for 5 consecutive days
# [9] = Day 19, individual rat, p.o. × 5: PIP[4,4,4] 100, hydrocortisone 30, indomethacin 5 mg/kg
structure (smiles),measurement,setting,value
"C(CCNCC1CCNCC1)CNCC1CCNCC1 [PIP[4,4,4], N,N'-Bis(4-piperidinylmethyl)-1,4-butanediamine]",Toxicity of compound administration (in words),"[1]; 75 mg/kg i.p. daily, dosage decreased to 50 mg/kg on Day 26",overt toxicity
same,Day on which decrease in joint measurements first evident,"[1]; i.p. daily from Day 20, 75 mg/kg",≤ 25 days
same,Mice died or sacrificed in extremis,"[1]; i.p. daily from Day 20, 75 then 50 mg/kg, during treatment period",Four of ten
same,Joint measurements / degree of inflammation (in words),"[1]; i.p. daily from Day 20, 75 then 50 mg/kg, vs saline control",Joint measurements decreased; also recorded: significantly less than that in mice treated with equal volumes of saline (control)
same,% Inhibition (writhing),[2]; 100 mg/kg i.p.,79%
same,# Writhes (X ± SEM),"[2]; 100 mg/kg i.p., P.Q. 2 mg/kg i.p. 30 min post dosing, **P < 0.01",3 ± 1 # WRITHES
same,Analgesic activity (in words),"[2]; i.p., compared with vehicle control",exhibited analgesic activity
same,"Proliferative response (CPM), Mean ± SD","[3]; LPS 25 μg/ml, drug 0.010 μm",175516 ± 10793 CPM
same,"Proliferative response (CPM), Mean ± SD","[3]; LPS 25 μg/ml, drug 0.100 μm",174197 ± 23886 CPM
same,"Proliferative response (CPM), Mean ± SD","[3]; LPS 25 μg/ml, drug 1.000 μm",192921 ± 32628 CPM
same,"Proliferative response (CPM), Mean ± SD","[3]; LPS 25 μg/ml, drug 10.000 μm",187500 ± 8089 CPM
same,"Proliferative response (CPM), Mean ± SD","[3]; LPS 25 μg/ml, drug 100.000 μm",117804 ± 14014 CPM
same,"Proliferative response (CPM), Mean ± SD","[3]; LPS 25 μg/ml, drug 1000.000 μm",83427 ± 18281 CPM
same,activity at 0.01 µM,"[3]; Mus musculus, Splenocyte, 72 h, LPS 25 μg/ml, drug 0.010 μm, read-out: % Control",100%
same,activity at 0.1 µM,"[3]; Mus musculus, Splenocyte, 72 h, LPS 25 μg/ml, drug 0.100 μm, read-out: % Control",99%
same,activity at 1 µM,"[3]; Mus musculus, Splenocyte, 72 h, LPS 25 μg/ml, drug 1.000 μm, read-out: % Control",110%
same,activity at 10 µM,"[3]; Mus musculus, Splenocyte, 72 h, LPS 25 μg/ml, drug 10.000 μm, read-out: % Control",106%
same,activity at 100 µM,"[3]; Mus musculus, Splenocyte, 72 h, LPS 25 μg/ml, drug 100.000 μm, read-out: % Control",67%
same,activity at 1000 µM,"[3]; Mus musculus, Splenocyte, 72 h, LPS 25 μg/ml, drug 1000.000 μm, read-out: % Control",47%
same,Effect on LPS response (in words),[3]; suppression in the 1-100 μm range,some inhibition of the LPS response; also recorded: some dose-dependent suppression
same,Acute anti-inflammatory activity (in words),[4]; 30 mg/kg intraperitoneally,significantly reducing the extent of carrageenan-induced paw edema
same,% Edema inhibition,"[4]; vs vehicle control, aspirin 150 mg/kg p.o., hydrocortisone 25 mg/kg p.o., PIP[4,4,4] 30 mg/kg i.p., >30% significant",58%
same,Solubility in the vehicle,[5],completely soluble
same,Acute and late phase swelling (in words),[6]; [8],reduced both part of the acute phase and inhibited the development of the late phase swelling in the contralateral paw
same,Signs of polyarthritis in the paws (in words),[6]; [8],did not prevent the appearance of signs of polyarthritis in the paws
same,Inhibition % B (5-0),"[6]; 5th day after 5 doses, p.o.: PIP[4,4,4] 100, hydrocortisone 30, indomethacin 5 mg/kg, >30% significant",26%
same,"Net swelling of paw volume A (1-0), average","[6]; Day 1 - Day 0, average, p.o. × 5: PIP[4,4,4] 100, hydrocortisone 30, indomethacin 5 mg/kg",0.74 mL
same,"Net swelling of paw volume B (5-0), average","[6]; Day 5 - Day 0, average, p.o. × 5: PIP[4,4,4] 100, hydrocortisone 30, indomethacin 5 mg/kg",1.22 mL
same,Net swelling of paw volume B (5-0),"[6]; Day 5 - Day 0, individual rat, p.o. × 5: PIP[4,4,4] 100, hydrocortisone 30, indomethacin 5 mg/kg",1.17 mL and 1.49 mL and 1.04 mL and 1.37 mL and 1.03 mL
same,"Net swelling of paw volume C (5-1), average","[6]; Day 5 - Day 1, average, p.o. × 5: PIP[4,4,4] 100, hydrocortisone 30, indomethacin 5 mg/kg",0.48 mL
same,Net swelling of paw volume C (5-1),"[6]; Day 5 - Day 1, individual rat, p.o. × 5: PIP[4,4,4] 100, hydrocortisone 30, indomethacin 5 mg/kg",0.34 mL and 0.70 mL and 0.50 mL and 0.52 mL
same,Polyarthritis E (ears),[6]; [9],-
same,Polyarthritis N (noses),[6]; [9],-
same,Polyarthritis P (paws),[6]; [9],+
same,Polyarthritis T (tails),[6]; [9],-
same,"B.W. Gain (18-0), average","[6]; average, p.o. × 5: PIP[4,4,4] 100, hydrocortisone 30, indomethacin 5 mg/kg",25 g
same,Inhibition % A (1-0),"[6]; first day, after one dose, p.o.: PIP[4,4,4] 100, hydrocortisone 30, indomethacin 5 mg/kg, >30% significant",11%
same,B.W. Gain (18-0),"[6]; individual rat, p.o. × 5: PIP[4,4,4] 100, hydrocortisone 30, indomethacin 5 mg/kg",20 g and 35 g and 5 g and 30 g
same,Inhibition % C (5-1),"[6]; paw volume change Day 1 to Day 5, p.o. × 5: PIP[4,4,4] 100, hydrocortisone 30, indomethacin 5 mg/kg, >30% significant",41%
same,"Net swelling of paw volume D (14-0), average","[6]; untreated paw, Day 14 - Day 0, average, p.o. × 5: PIP[4,4,4] 100, hydrocortisone 30, indomethacin 5 mg/kg",0.29 mL
same,Net swelling of paw volume D (14-0),"[6]; untreated paw, Day 14 - Day 0, individual rat, p.o. × 5: PIP[4,4,4] 100, hydrocortisone 30, indomethacin 5 mg/kg",0.25 mL and 0.43 mL and 0.23 mL and 0.34 mL and 0.20 mL
same,Inhibition % D (14-0),"[6]; untreated paw, Day 14 relative to Day 0, p.o. × 5: PIP[4,4,4] 100, hydrocortisone 30, indomethacin 5 mg/kg, >30% significant",36%
same,Inhibition % F (18-14),"[6]; untreated paw, Day 14 to Day 18, p.o. × 5: PIP[4,4,4] 100, hydrocortisone 30, indomethacin 5 mg/kg, >30% significant",47%
same,"Net swelling of paw volume E (18-0), average","[6]; untreated paw, Day 18 - Day 0, average, p.o. × 5: PIP[4,4,4] 100, hydrocortisone 30, indomethacin 5 mg/kg",0.45 mL
same,Net swelling of paw volume E (18-0),"[6]; untreated paw, Day 18 - Day 0, individual rat, p.o. × 5: PIP[4,4,4] 100, hydrocortisone 30, indomethacin 5 mg/kg",0.35 mL and 0.55 mL and 0.37 mL and 0.45 mL and 0.53 mL
same,"Net swelling of paw volume F (18-14), average","[6]; untreated paw, Day 18 - Day 14, average, p.o. × 5: PIP[4,4,4] 100, hydrocortisone 30, indomethacin 5 mg/kg",0.16 mL
same,Net swelling of paw volume F (18-14),"[6]; untreated paw, Day 18 - Day 14, individual rat, p.o. × 5: PIP[4,4,4] 100, hydrocortisone 30, indomethacin 5 mg/kg",0.10 mL and 0.12 mL and 0.14 mL and 0.11 mL and 0.33 mL
same,Inhibition % E (18-0),"[6]; untreated paw, Day 18 relative to Day 0, p.o. × 5: PIP[4,4,4] 100, hydrocortisone 30, indomethacin 5 mg/kg, >30% significant",40%
same,Weight gain reductions (in words),"[6]; vs vehicle-treated animals, 18 day study",did not affect weight gain reductions
same,% FINAL INHIBITION,[7]; Day 28-0,58%
same,FINAL DAY 28-0 (paw volume),[7],.801
same,INITIAL DAY 14-0 (paw volume),[7],.496
